In assay [1] the test system is high-CBD hemp varieties Stormy Daniels and BaOX. Nature of the assay: Field foliar applications of MDJ, MeJA and CJ on high-CBD hemp, cannabinoid analysis. The class given is in vivo, Cannabis spp. The settings on record: 7.5 mM foliar, four applications every 14 days in flowering. The method, then: However, MDJ is not known to have any significant bioactivity in planta and is not an endogenously produced phytohormone in cannabis, so it was unknown whether MDJ would afford the same functionality as MeJA. Similarly, CJ has likewise been relatively under-investigated as a plant elicitor despite being a decarboxylation product of Jasmonic Acid. Here, the effect of MDJ and CJ were analyzed (in addition to MeJA) in order to determine any difference in the effect of these treatments on field-grown high-CBD hemp varieties.
A hemp field experiment was conducted during the flowering phase of plant development in a private research field located in North Carolina. Sixty (60) plants from two distinct plant variety populations, Stormy Daniels and BaOX were selected for the trial. Each group of 60 plants was randomly divided into three groups of 20 plants and labeled accordingly to indicate the treatment group (T1, T2, T3). All plants were cultivated identically and subjected to approximately the same environmental conditions. Control, untreated plants were taken from the same field. Plants were treated according to treatment group, and each treatment group was subjected to four (4) applications of its respective treatment, with the first treatments applied on what was considered to be the first day of the flowering phase and repeated then again every successive 14 days up until just prior to harvest. Treatments were as follows: Control group=Control, Treatment 1=MDJ, Treatment 2=MeJA, Treatment 3=CJ.
All treatments were prepared in a stock (concentrated, non-aqueous) form by Impello Biosciences in their lab in Loveland, Colo. and labelled respectively prior to the start of the experiment. All treatments were prepared at a high stock concentration that allowed dilution by the applicator with 2 liters of water to a final 7.5 mM concentration of active ingredient (i.e., MeJA, MDJ, or CJ) for each treatment; 15-mL centrifuge tubes were used as preparation and storage vessels for each of the treatments. Preparation of the stock solutions ensured that the applicator could store the solutions prior to use at 4° C. to minimize degradation and allow for dilution immediately prior to use. In the stock containers, 2 mL of TWEEN®-20 was added to each respective elicitor compound as an emulsifier in order to reach a final oil-in-water emulsion once diluted with a concentration of 7.5 mM active ingredient and 0.1% surfactant (i.e., TWEEN®-20) v/v.
Plants were grown to maturity and 5 plants from each treatment and control group were sampled on Sep. 23, 2019. Care was taken to ensure samples were similar in appearance and spatial location between plants to minimize unintended variance in sample quality. The apical cola for each plant was harvested, and specifically, the top 3″ of the main cola. Yield data was not collected in this study, but no obvious differences in plant size or appearance were noted. Samples were submitted for chemical analysis (Avazyme, Inc, NC).
All models were linear models fit with Group (treatment) as the independent variable and the response variable was the corresponding compound. Data was filtered and comparison between treatments were conducted using the emmeans package and Tukey HSD for post-hoc corrections. Statistical significance was defined by a level of significance of p<0.05 in the Tukey test. Total cannabinoids included CBN, Δ9-THC, CBDV, CBG, CBD, CBC, CBDA, CBGA, THCA, and THCV. Total THC and total CBD were calculated by accounting for the additional weight of the carboxyl group in the acidic forms and adding those to the neutral/non-acidic forms.

Another assay relates to CBDRx Cherry variety. In words: MeJA vs MDJ weekly foliar spray, terpene analysis. The class given is in vivo, Cannabis spp. The conditions noted are these: 4.25 mM or 7.5 mM weekly foliar spray. The method, then: (§1) To directly compare the efficacy of MeJA and MDJ, MeJA and MDJ were applied as a foliar spray once per week at either 4.25 mM or 7.5 mM concentrations to two high-CBD cannabis varieties. Clones from CBDRx Cherry variety and Sunrise Genetics' F2 variety were transplanted into 1-gallon pots with Red's soil and put into vegetative light cycle (18L/6D) on 4/12/21. All plants had two weeks in vegetative light cycle and were moved to flowering light cycle (12L/12D) on 4/26/21 for six weeks. Foliar applications started in week three of growth, [at flower initiation?]. Plants were then moved to a flowering light cycle. Each treatment group comprises three plants, including the control. Throughout the growing period, all plants were watered with JACK'S NUTRIENTS®. Plants were harvested on 6/7/21.
(§2) Treatments: Each concentration was prepared from a one molar stock solution with TWEEN®-20. Sprays were prepared weekly and diluted with RO water. Each plant was sprayed till dripping, each receiving approximately 75-100 ml.

In assay [2] the test system is Sunrise Genetics' F2 variety. Nature of the assay: MeJA vs MDJ weekly foliar spray, terpene analysis. The format is in vivo, Cannabis spp. The conditions noted are these: for eucalyptol / guaiol / α-bisabolol: 4.25 mM or 7.5 mM MDJ, or 7.5 mM MeJA; for D-Limonene / Linalool / cis-B-ocimene: all applications (4.25 mM and 7.5 mM). The procedure:
as §1, §2

A further assay relates to Diaporthe rudis. In words: Mold growth on jasmonate-infused plates, mold 3 isolated from avocado. The class given is cell-based. The settings on record: various concentrations in plates. The method, then: MDJ (TCI, CAS No.: 24851-98-7) and CJ were infused into potato dextrose agar (PDA, VWR Cat No.: 90003-494) petri dishes (100×15 mm VWR, Cat No: 25384-094) at concentrations ranging from 1 mM, 4.25 mM, and 10 mM. Each treatment was prepared using a technical grade stock solution of pure chemical (CJ or MDJ) diluted with TWEEN®-20 (VWR, CAS No.: […]). Culturable oyster mushroom and seedling mold served to create fungal mycelial plugs using a sterile 1 mL pipette tip (Eppendorf, Cat No.: 022491458) held upside down. The tips were used to make circle excisions (i.e., fungal plugs) from a mycelial mat grown on PDA with no biochemical infusions. Fungal pugs were then transferred to PDA infused with varying concentrations of CJ or MDJ, and control plates (no CJ or MDJ infusion) to monitor fungal growth at room temperature over time.
Based on the above results in Cannabis spp., additional fungi from various crops was sampled and tested. Plates comprising various concentrations of MDJ or MJ were prepared as described above.

[3] abbreviates: 4.25 mM or 7.5 mM weekly foliar spray.

Regarding `CC/C=C\C[C@H]1C(=O)CC[C@@H]1CC(=O)OC` [MeJA, Methyl Jasmonate], in assay [1], the “CBDA increase relative to the control group” value was determined as 5.36%, the “THCA increase relative to the control group” value came out at 5.36%, the “Total CBD increase relative to the control group” value was found to be 5.75% and the “Total Cannabinoids increase relative to the control group” value is on record as 5.64%. Further, in assay [1], the “Total THC increase relative to the control group” value was found to be 6.06%. Further, in the assay on CBDRx Cherry variety, the camphene entry is given as “neither concentration of MeJA significantly altered”, the total terpene content result was “neither concentration of MeJA significantly altered”, the α-pinene result was “neither concentration of MeJA significantly altered” and the β-pinene entry is “neither concentration of MeJA significantly altered”. Moreover, in assay [2], the eucalyptol result was “Significant increases”, the guaiol entry is “Significant increases”, the α-bisabolol result is reported as “Significant increases” and the D-Limonene entry is given as “significantly decreased”. Besides, in assay [2], the Linalool result was “significantly increased” and the cis-B-ocimene entry is listed as “significantly decreased”. In assay [2] (only with the higher concentration of 7.5 mM), the “β-myrcene, α-pinene, camphene, β-pinene and total terpene content” value is “significant reduction”. For the same compound, the “growth of mold isolated from avocado (mold 3)” value in the assay on Diaporthe rudis is recorded as “effective at preventing the growth”.

Turning to `CCCCCC1C(=O)CCC1CC(=O)OC` (stereo not drawn) [MDJ, methyl dihydrojasmonate], in assay [1], the “CBDA increase relative to the control group” value is reported as 16.53%, the “THCA increase relative to the control group” value was found to be 19.69%, the “Total CBD increase relative to the control group” value was found to be 16.62% and the “Total Cannabinoids increase relative to the control group” value was determined as 16.38%. In addition, the “Total THC increase relative to the control group” value in assay [1] is 19.61%. For the same compound, in the assay on CBDRx Cherry variety, the camphene entry is listed as “significantly lowered”, the total terpene content result is listed as “significantly lowered”, the α-pinene result was “significantly lowered” and the β-myrcene content entry is “significantly lowered”. Also, the β-pinene entry with CBDRx Cherry variety is on record as “significantly lowered”. In assay [2], the eucalyptol result is “Significant increases”, the guaiol result is listed as “Significant increases”, the α-bisabolol result was “Significant increases” and the D-Limonene result is reported as “significantly decreased”. Besides, in assay [2], the Linalool result is listed as “significantly increased” and the cis-B-ocimene entry is on record as “significantly decreased”. Further, in assay [2] (setting [3]), the camphene result is “significantly lowered”, the p-pinene result is on record as “significantly lowered”, the total terpene content entry is given as “significantly lowered” and the α-pinene entry is recorded as “significantly lowered”. The β-myrcene content result in assay [2] (setting [3]) was “significantly lowered”. Besides, the “growth of mold isolated from avocado (mold 3)” value with Diaporthe rudis was “effective at preventing the growth”.

The values are drawn from patent US11638427B2, “Methods and compositions for altering secondary metabolites in plants” (Impello Biosciences, Inc, priority 2020, dated 2023).
